Test results reported in patent publication US20160038485A1, “PHASE 2 INDUCERS AND RELATED SIGNALING PATHWAYS PROTECT CARTILAGE AGAINST INFLAMMATION, APOPTOSIS AND STRESS” (THE JOHNS HOPKINS UNIVERSITY, priority 2006, published 2016).

Legend:
Type in all cases: cell-based, human
[1] = test system: T/C28a2 chondrocytic cells; experiment: DNA microarray analysis of shear-induced mRNA response of chondrocytes; set-up: COX-1 (cyclooxygenase-1) microarray intensity ratio (shear/static): dose or concentration left out as unconfirmed; details: 20 dyn/cm2, 48 hr, mean ± SD
Method: (§1) Cell Culture and Shear Stress Exposure: Human T/C28a2 chondrocytic cells were grown (37° C., 5% CO2) in 1:1 Ham's F-12/DMEM (Biowhittaker) supplemented with 10% FBS. Prior to shear exposure, T/C28a2 cells were incubated for 24 hours in serum-free medium containing 1% Nutridoma-SP (Roche), a low-protein serum replacement that maintains chondrocyte phenotype. Primary HUVECs were cultured as described (Goldring, M. B., 2004). T/C28a2 cells were exposed to shear stress in media containing 1% Nutridoma by use of a parallel-plate flow chamber with a recirculating flow loop (37° C., 5% CO2) (10). HUVECs were treated similarly by circulating media supplemented with 10% FBS.
Microarray Hybridization and Analysis: Cy-3- and Cy-5-labeled probes were mixed, dried, resuspended in hybridization buffer (50% formamide, 10×SSC, 0.2% SDS, COT-I DNA, Poly(A)-DNA), and denatured. The probes were added to microarray slides printed with a set of 32,448 or 39,936 expressed sequence tags (ESTs), allowed to hybridize at 42° C. overnight, and processed as described (Abulencia, J. P., et al. 2003. Hegde, P. et al. 2000). Expression ratios were derived using TIGR Spotfinder (Abulencia, J. P. et al. 2003, Hegde, P. et al. 2000). Differentially expressed genes were identified by Significance Analysis of Microarrays, and analyzed with the software TMEV (Abulencia, J. P. et al. 2003).
Quantitative Real-Time PCR (qRT-PCR) was used to verify DNA microarray data. Incorporation of SYBR Green into PCR products was monitored with the 7900HT detection system.

ARE-driven NQO1 promoter = experiment: Promoter activity assay (pNQO1/ARE-luc); details: transfected T/C28a2 cells; SFN 1.25 μM or D3T 5 μM, 24 h, static conditions
Method: Transient Transfection and Plasmid Constructs: T/C28a2 cells were transfected with 10 μg of plasmid and 2 μg of control with Lipofectamine and Plus Reagent (Invitrogen). Cells were allowed to recover for 3 hours, incubated overnight in medium containing 1% Nutridoma, and exposed to the indicated treatments. Efficiency was assessed by flow cytometry with pEGFP-N2 (BD Biosciences). pCMV-mNrf2 and pNQO1/ARE-luc constructs were provided by N. Wakabayashi (Wakabayashi, N. et al. 2004). Igarashi, K., et al. 1994), and pBJ M-pl 10*-myc, pBJ M<<pl 10-UR, and pCG pi 10 wt constructs were provided by A. Kippel (Hu, Q., et al. 1995).
Promoter Activity Assay: T/C28a2 cells were transfected with 10 μg of pNQO1/ARE-luc and 1 μg each of pEGFP-N2 and pSV40-hRL2 (Promega) to normalize transfection efficiency. Firefly and Renilla luciferase activities were measured using the Dual-Luciferase Report Assay kit (Promega).

NQO1 = NQO1 enzyme activity in shear-activated chondrocytes; details: T/C28a2, high shear (20 dyn/cm^2); SFN 1.25 μM, D3T 5 μM, CAY10404 6.75 μM, NS398 30 μM
Method: as §1
(§2) Cell Viability, NQO1 activity, Glutathione levels, and Prostaglandin (PG)E2 production: Cell viability was monitored with the MTT assay (Gao, X. et al. 2001). NQO1 activity and total GSH (oxidized and reduced) levels of cell lysates were determined in 96-well microtiter plates. PGE2 levels were determined in media by the Prostaglandin E2 monoclonal EIA kit (Cayman Chemical).

COX-2 = experiment: Intracellular COX-2 protein staining, flow cytometry; details: D3T 5 μM; 20 dyn/cm^2, 48 hours
Method: as §1
(§3) Intracellular Protein Staining and Western Blots: T/C28a2 cells were fixed in 1.0% formaldehyde for 10 min at 37° C., permeabilized in 90% methanol for 20 minutes on ice, and incubated at 25° C. for 10 min in blocking buffer (0.5% BSA). Specimens were then incubated with fluorophore-conjugated monoclonal antibodies specific for COX-I (COX-1/FITC) and COX-2 (COX-2/PE) (Cayman Chemical) or isotype controls (BD Biosciences) for 30 min, washed 2× in blocking buffer, and analyzed by flow cytometry. For Western blots, total cell lysates were subjected to SDS/PAGE, transferred to a membrane, and probed with caspase-9 and β-actin antibodies (Upstate).

T/C28a2 cells [2] = experiment: Shear-induced PGE2 production (EIA of culture media); details: D3T 5 μM; fluid shear 48 hours
Method: as §1, §2

T/C28a2 cells [3] = experiment: Shear-induced apoptosis: DNA fragmentation (TUNEL) and mitochondrial membrane depolarization; details: 20 dyn/cm^2, 48 h; D3T 5 μM, CAY10404 6.75 μM, NS398 30 μM
Method: as §1
DNA Fragmentation and Mitochondrial Depolarization: For DNA fragmentation, cells were fixed in 4% paraformaldehyde for 1 hour at 25° C., washed 2× in PBS, and permeabilized briefly in 0.1% Triton-X100/0.1% sodium citrate on ice. Subsequently, cells were washed 2× in PBS, labeled using the In Situ Cell Death Kit (Roche), and analyzed by flow cytometry. To quantify Mitochondrial Membrane Potential (MMP), cells were labeled using the MitoProbe JC-I Kit (Molecular Probes).

caspase-9 = experiment: Caspase-9 immunoblot analysis; details: high shear 20 dyn/cm^2
Method: as §1, §3

COX-I = experiment: Intracellular COX-1 protein staining, flow cytometry; details: D3T 5 μM; static or laminar shear 5 or 20 dyn/cm^2, 48 hours
Method: as §1, §3

[4] = 5 μM D3T (shear) vs 0.1% DMSO (static)

ARE-driven NQO1 promoter luciferase activity (ARE-driven NQO1 promoter): increases the luciferase activity | expression of proform (46 kDa) and active form (34 kDa) of caspase-9 (caspase-9): substantially reduced expression
Compound: S=c1ccss1 [D3T, 1,2-dithiole-3-thione]
COX-2 (cyclooxygenase-2) microarray intensity ratio (shear/static) [1, 4]: 1.3 ± 0.2 | Caspase-9 precursor microarray intensity ratio (shear/static) [1, 4]: 0.8 ± 0.1 | GCLR (γ-glutamylcysteine ligase) microarray intensity ratio (shear/static) [1, 4]: 1.6 ± 0.1 | GST μ1 (glutathione S-transferase) microarray intensity ratio (shear/static) [1, 4]: 1.6 ± 0.1 | Glutathione reductase microarray intensity ratio (shear/static) [1, 4]: 2.8 ± 0.1 | HO-1 (Heme Oxygenase-1) microarray intensity ratio (shear/static) [1, 4]: 1.2 ± 0.1 | HO-2 (Heme Oxygenase-2) microarray intensity ratio (shear/static) [1, 4]: 0.9 ± 0.1 | JNK2 (c-jun N-terminal kinase 2) microarray intensity ratio (shear/static) [1, 4]: 1.6 ± 0.1 | NQO1 (NAD(P)H:quinone reductase-1) microarray intensity ratio (shear/static) [1, 4]: 1.3 ± 0.1 | Nrf2 (NF-E2 related factor 2) microarray intensity ratio (shear/static) [1, 4]: 1.3 ± 0.1 | PI3K (phosphoinositol kinase 3) microarray intensity ratio (shear/static) [1, 4]: 0.8 ± 0.2 | Transcription Factor AP-1 (c-jun) microarray intensity ratio (shear/static) [1, 4]: 1.4 ± 0.1 | UDP-glucuronosyltransferase microarray intensity ratio (shear/static) [1, 4]: 1.0 ± 0.1 | COX-1 (cyclooxygenase-1) microarray intensity ratio (shear/static) [1]: 1.3 ± 0.1 | shear-induced suppression of NQO1 activity (NQO1): likewise effective in suppressing the shear-mediated reduction of phase 2 enzyme activity | COX-2 protein expression in chondrocytes subjected to high shear (COX-2): nearly abrogated | PGE2 production in chondrocytes subjected to high shear (T/C28a2 cells [2]): nearly abrogated | shear-induced apoptosis (DNA fragmentation TUNEL, mitochondrial membrane depolarization MMP) (T/C28a2 cells [3]): essentially abrogated | COX-I expression (COX-I): remains unchanged
